This is an account of results in publication PMC4671956, “Exploiting Transient Protein States for the Design of Small-Molecule Stabilizers of Mutant p53” (Structure(London, England:1993), 2015).

Experiment [1] deals with T1, p53 Y220C mutant (Homo sapiens, UniProt P04637, M133L/N239Y/N268D/V203A/Y220C). Set-up: method as in Boeckler et al., 2008. To be noted: ref Boeckler et al., 2008; cited from earlier work.
In experiment [2] the target is T1, p53 Y220C mutant. Set-up: method as in Boeckler et al., 2008. To be noted: ref Boeckler et al., 2008; cited from earlier work. This is another data set of the same source.
Experiment [3] has as its target T1, p53 Y220C mutant. As to the kind of experiment: Dissociation constant by isothermal calorimetry (ITC). It is filed as binding. The procedure: (§1) Dissociation constants for the binding of ligands to the p53 Y220C mutant were determined by either nuclear magnetic resonance spectroscopy or isothermal calorimetry as described by [Wilcken et al. (2012a)].
In general terms: ITC needs no label: the signal is the heat of the interaction.

The test system of experiment [4] is cancer cell lines expressing the Y220C mutant. Set-up: method as in Liu et al., 2013. To be noted: ref Liu et al., 2013; cited from earlier work.
The target of experiment [5] is T1, p53 Y220C mutant. As to the kind of experiment: Dissociation constant by nuclear magnetic resonance spectroscopy (NMR). It is filed as binding. Here is the method: as §1
[6] abbreviates: NMR, p53-Y220C ligand complex, read-out: KD.

A value given as a limit tells only on which side of the number the result lay.

For `CCn1c2ccccc2c2cc(CNC)ccc21` [Compound 1, PhiKan083], the “effect on rate of aggregation” value in experiment [1] is recorded as “slows down its rate of aggregation”. Also, the “effect on melting temperature of the protein” value in experiment [2] is “raises the melting temperature of the protein”.

Consider `O=C(O)c1cc(I)c(-n2cccc2)c(I)c1O` [Compound 9], for which, in experiment [3] (ITC, p53-Y220C ligand complex), the dissociation constant Kd – broadly, a measure of binding affinity in units of concentration – came to 21 µM. In addition, in experiment [3] (compound 9 relative to scaffold 4 without pyrrole), the increase in affinity was found to be 40 fold. The “ligand efficiency [LE]” value in experiment [3] (from KD = 21 μM (ITC)) is recorded as 0.38 kcal/mol per non-hydrogen atom.

Take `Cn1cc(-c2ccccc2)c(-n2cccc2)n1` [PhiKan7088]: the “biological activity in cancer cell lines” value in experiment [4] is listed as “biologically active”.

As to `CN(C)CCn1cc(-c2ccc(F)cc2)c(-n2cccc2)n1` [Compound 7, PhiKan7242], the Kd in experiment [5] (setting [6]) is 2400 µM.

Turning to `CCc1cccc2c(C3CCNCC3)c[nH]c12` [Compound 2], the Kd in experiment [5] (setting [6]) was 470 ± 90 µM.

Take `Nc1ccc(C(F)(F)F)cc1N` [Compound 8]: in experiment [5] (setting [6]), the Kd is above 10000 µM.

For the compound `Nc1cc(C(F)(F)F)cc(Br)c1N` [Compound 11], the Kd in experiment [5] (setting [6]) amounted to 4800 µM.

Take `CCc1cc(Br)cc2c(CCN)c(C)[nH]c12` [Compound 6]: the affinity in experiment [5], expressed as Kd, was 940 ± 110 µM.

With `O=C(O)c1cc(I)cc(I)c1O` [Compound 4], the “ligand efficiency [LE]” value in experiment [5] (from KD = 820 μM (NMR)) is given as 0.35 kcal/mol per non-hydrogen atom.

Consider `c1ccn(-c2oc(C3CC3)nc2-c2nnn[nH]2)c1` [Compound 10], for which, in experiment [5] (setting [6]), the Kd is above 2000 µM.

In the case of `O=C(Nc1ccc(Cl)cc1O)C1CCNCC1` [Compound 12], in experiment [5] (setting [6]), the Kd was 1270 µM.
